This is an account of results in patent US7144876B2, “3,5-Disubstituted-[1,2,4]-oxadiazoles and analogs as activators of caspases and inducers of apoptosis and the use thereof” (Cytovia, Inc., priority 2002, dated 2006).

Molecules are shown by their SMILES.

The subject of one test is MX1. Description: Inhibition of cell proliferation (GI50), CellTiter 96 AQueous One Solution. It counts as cell-based. To be noted: Homo sapiens; MX1 cells, 48 h incubation; dose for 50% inhibition of cell proliferation.
The test system of test [1] is T-47D. The test is described as above. The class given is cell-based. The following applies: Homo sapiens, T47D; T-47D cells, 48 h incubation; dose for 50% inhibition of cell proliferation. Here is the method:
T-47D and SKBr-3 cells were grown and harvested as in Example 72. An aliquot of 90 μL of cells (2.2×10^4 cells/mL) was added to a well of a 96-well microtiter plate containing 10 μl of a 10% DMSO in RPMI-1640 media solution containing 1 nM to […] of 3-(3-amino-4-chloro-phenyl)-5-(3-chlorothiophen-2-yl)-[1,2,4]-oxadiazole (0.1 nM to 10 μM final). An aliquot of 90 μL of cells was added to a well of a 96-well microtiter plate containing 10 μL of a 10% DMSO in RPMI-1640 media solution without compound as the control sample for maximal cell proliferation (AMax). The samples were mixed by agitation and then incubated at 37° C. for 48 h in a 5% CO2-95% humidity incubator. After incubation, the samples were removed from the incubator and 20 μL of CellTiter 96 AQUEOUS One Solution Cell Proliferation™ reagent (Promega) was added. The samples were mixed by agitation and incubated at 37° C. for 2–4 h in a 5% CO2-95% humidity incubator. Using an absorbance plate reader (Model 1420 Wallac Instruments), an initial reading (T=0) was made approximately 1–2 min after addition of the solution, employing absorbance at 490 nm. This determines the possible background absorbance of the test compounds. No absorbance for 3-(3-amino-4-chloro-phenyl)-5-(3-chlorothiophen-2-yl)-[1,2,4]-oxadiazole was found at 490 nm. After the 2–4 h incubation, the samples were read for absorbance as above (ATest).
Baseline for GI50 (dose for 50% inhibition of cell proliferation) of initial cell numbers were determined by adding an aliquot of 90 μL of cells or 90 μL of media, respectively, to wells of a 96-well microtiter plate containing 10 μL of a 10% DMSO in RPMI-1640 media solution. The samples were mixed by agitation and then incubated at 37° C. for 0.5 h in a 5% CO2-95% humidity incubator. After incubation, the samples were removed from the incubator and 20 μL of CellTiter 96 AQUEOUS One Solution Cell Proliferation™ reagent (Promega) was added. The samples were mixed by agitation and incubated at 37° C. for 2–4 h in a 5% CO2-95% humidity incubator. Absorbance was read as above, (AStart) defining absorbance for initial cell number used as baseline in GI50 determinations.
Calculation: GI50 (dose for 50% inhibition of cell proliferation) is the concentration where [(ATest−AStart)/(AMax−Astart)]=0.5.

Test [2] has as its system T-47D. Put plainly: Caspase cascade activation assay (N-(Ac-DEVD)-N'-ethoxycarbonyl-R110 fluorogenic substrate) in solid tumor cells. To be noted: T-47D cells, 48 h incubation; for EC50: Homo sapiens, T47D, sigmoidal dose-response, read-out: Caspase potency EC50; for Caspase activity (Ratio): ratio of net RFU of test compound to that of control samples. It counts as cell-based, Human. Here is the method: Human breast cancer cell lines T-47D and ZR-75-1 were grown according to media component mixtures designated by American Type Culture Collection+10% FCS (Invitrogen Corporation), in a 5% CO2-95% humidity incubator at 37° C. T-47D and ZR-75-1 cells were maintained at a cell density between 50 and 80% confluency at a cell density of 0.1 to 0.6×10^6 cells/mL. Cells were harvested at 600×g and resuspended at 0.65×10^6 cells/mL into appropriate media+10% FCS. An aliquot of 45 μl of cells was added to a well of a 96-well microtiter plate containing 2.5 μl of a 10% DMSO in RPMI-1640 media solution containing 0.16 to 100 μM of 3-(3-amino-4-chloro-phenyl)-5-(3-chlorothiophen-2-yl)-[1,2,4]-oxadiazole or other test compound (0.016 to 10 μM final). An aliquot of 22.5 μL of cells was added to a well of a 384-well microtiter plate containing 2.5 μl of a 10% DMSO in RPMI-1640 media solution without test compound as the control sample. The samples were mixed by agitation and then incubated at 37° C. for 48 h in a 5% CO2-95% humidity incubator. After incubation, the samples were removed from the incubator and 25 μL of a solution containing 14 μM of N-(Ac-DEVD)-N′-ethoxycarbonyl-R110 (SEQ ID No.:1) fluorogenic substrate (Maxim, Inc.; WO99/18856), 20% sucrose (Sigma), 20 mM DTT (Sigma), 200 mM NaCl (Sigma), 40 mM Na PIPES buffer pH 7.2 (Sigma), and 500 μg/mL lysolecithin (Calbiochem) was added. The samples were mixed by agitation and incubated at room temperature. Using a fluorescent plate reader (Model SpectraMax Gemini, Molecular Devices), an initial reading (T=0) was made approximately 1–2 min after addition of the substrate solution, employing excitation at 485 nm and emission at 530 nm, to determine the background fluorescence of the control sample. After the 3 h incubation, the samples were read for fluorescence as above (T=3 h).
The Relative Fluorescence Unit values (RFU) were used to calculate the sample readings as follows: RFU(T=3h)−Control RFU(T=0)=Net RFU(T=3h)
The activity of caspase cascade activation was determined by the ratio of the net RFU value for 3-(3-amino-4-chloro-phenyl)-5-(3-chlorothiophen-2-yl)-[1,2,4]-oxadiazole or other test compound to that of control samples. The EC50 (nM) was determined by a sigmoidal dose-response calculation (Prism 2.0, GraphPad Software Inc.).

For orientation: GI50 means the concentration giving 50% growth inhibition. The term EC50 denotes the midpoint of the concentration-response curve. Turning to `Nc1cc(-c2noc(-c3sccc3Cl)n2)ccc1Cl` [Example 1, 3-(3-Amino-4-chloro-phenyl)-5-(3-chlorothiophen-2-yl)-[1,2,4]-oxadiazole], the GI50 in the test on MX1 came out at 7 µM; with T-47D [1], 0.894 µM. Besides, in the test on T-47D [2], the EC50 turned out to be 1.98 µM. Moreover, the “Caspase activity (Ratio)” value with T-47D [2] came to 11.9.

On to `CN(C)c1cc(-c2noc(-c3sccc3Cl)n2)ccc1Cl` [Example 2, 5-(3-Chlorothiophen-2-yl)-3-(3-dimethylamino-4-chloro-phenyl)-[1,2,4]-oxadiazole], for which the GI50 in the test with MX1 is 5 µM. Further, growth in the test on T-47D [1] was halved (GI50) at 0.36 µM. Besides, in the test with T-47D [2], the EC50 amounted to 1.52 µM and the “Caspase activity (Ratio)” value was 15.1.

For `CN(C)c1cc(-c2noc(-c3occc3Br)n2)ccc1Cl` [Example 4, 5-(3-Bromofuran-2-yl)-3-(3-dimethylamino-4-chloro-phenyl)-[1,2,4]-oxadiazole], the GI50 in the test on MX1 amounted to 0.21 µM. The molecule also returned a GI50 with T-47D [1] of 0.415 µM. In addition, in the test with T-47D [2], the EC50 amounted to 1.85 µM and the “Caspase activity (Ratio)” value is on record as 11.9.

For `N#Cc1cc(-c2noc(-c3sccc3Cl)n2)ccc1Cl` [Example 7, 5-(3-Chlorothiophen-2-yl)-3-(4-chloro-3-cyano-phenyl)-[1,2,4]-oxadiazole], in the test with T-47D [2], the EC50 was 4 µM and the “Caspase activity (Ratio)” value was determined as 3.4.

As to `Fc1cc(-c2noc(-c3sccc3Cl)n2)ccc1Cl` [Example 9, 5-(3-Chlorothiophen-2-yl)-3-(4-chloro-3-fluoro-phenyl)-[1,2,4]-oxadiazole], growth with MX1 was halved (GI50) at 0.899 µM. For the same molecule, halving of growth in the test on T-47D [1] (GI50) required 0.514 µM. In the test with T-47D [2], the EC50 was found to be 3.27 µM and the “Caspase activity (Ratio)” value stood at 9.0.

As for `O=[N+]([O-])c1cc(-c2noc(-c3sccc3Cl)n2)ccc1Cl` [Example 10, 5-(3-Chlorothiophen-2-yl)-3-(4-chloro-3-nitro-phenyl)-[1,2,4]-oxadiazole], in the test on T-47D [2], the concentration for a half-maximal effect (EC50) was found to be 3.75 µM and the “Caspase activity (Ratio)” value is 9.9.

With `Clc1ccc(C=Cc2noc(-c3sccc3Cl)n2)cc1` [Example 13, 3-[2-(4-Chloro-phenyl)-vinyl]-5-(3-chlorothiophen-2-yl)-[1,2,4]-oxadiazole], in the test on T-47D [2], the EC50 came to 5.55 µM and the “Caspase activity (Ratio)” value stood at 4.4.

On to `Clc1ccsc1-c1nc(N2CCCCC2)no1` [Example 18, 5-(3-Chlorothiophen-2-yl)-3-(1-piperidinyl)-[1,2,4]-oxadiazole], for which, in the test with T-47D [2], the EC50 came to 5.04 µM and the “Caspase activity (Ratio)” value stood at 2.8.

In the case of `CC1CCN(c2noc(-c3sccc3Cl)n2)CC1` [Example 22, 5-(3-Chlorothiophen-2-yl)-3-(4-methylpiperidin-1-yl)-[1,2,4]oxadiazole], in the test on T-47D [2], the concentration giving a half-maximal response (EC50) is 3.32 µM and the “Caspase activity (Ratio)” value is 5.4.

In the case of `Cc1cc(Cl)ccc1-c1noc(-c2sccc2Cl)n1` [Example 43, 3-(4-Chloro-2-methyl-phenyl)-5-(3-chlorothiophen-2-yl)-[1,2,4]oxadiazole], in the test with T-47D [2], the EC50 was 0.818 µM and the “Caspase activity (Ratio)” value was determined as 7.9.

`Cc1cccnc1-c1noc(-c2sccc2Cl)n1` [Example 47, 5-(3-Chlorothiophen-2-yl)-3-(3-methyl-pyridin-2-yl)-[1,2,4]oxadiazole]: in the test with T-47D [2], the EC50 is 2.44 µM and the “Caspase activity (Ratio)” value amounted to 4.5.

Consider `Cc1cc(Cl)ccc1-c1noc(-c2occc2Br)n1` [Example 49, 5-(3-Bromofuran-2-yl)-3-(4-chloro-2-methyl-phenyl)-[1,2,4]oxadiazole], for which, in the test on T-47D [2], the EC50 came out at 1.01 µM and the “Caspase activity (Ratio)” value is on record as 11.9.

As to `Cc1cc(Cl)cnc1-c1noc(-c2occc2Br)n1` [Example 50, 5-(3-Bromofuran-2-yl)-3-(5-chloro-3-methyl-pyridin-2-yl)-[1,2,4]oxadiazole], in the test with T-47D [2], the EC50 came to 0.797 µM and the “Caspase activity (Ratio)” value stood at 5.9.

Consider `Cc1cccnc1-c1noc(-c2occc2Br)n1` [Example 57, 5-(3-Bromofuran-2-yl)-3-(3-methyl-pyridin-2-yl)-[1,2,4]oxadiazole], for which, in the test with T-47D [2], the concentration for a half-maximal effect (EC50) worked out at 0.846 µM and the “Caspase activity (Ratio)” value was found to be 6.4.
